The results in this text go back to patent US20150315188A1, “COMPOUNDS AND METHODS FOR TREATMENT OF HYPERTENSION” (MEDIVATION TECHNOLOGIES, INC., priority 2012, published 2015).

Parameters in all cases: purchased Milipore (Millipore)
Assay [1] deals with T1, Human adrenergic α2B receptor (Homo sapiens, UniProt P18089).
T1 sequence (P18089 1-450): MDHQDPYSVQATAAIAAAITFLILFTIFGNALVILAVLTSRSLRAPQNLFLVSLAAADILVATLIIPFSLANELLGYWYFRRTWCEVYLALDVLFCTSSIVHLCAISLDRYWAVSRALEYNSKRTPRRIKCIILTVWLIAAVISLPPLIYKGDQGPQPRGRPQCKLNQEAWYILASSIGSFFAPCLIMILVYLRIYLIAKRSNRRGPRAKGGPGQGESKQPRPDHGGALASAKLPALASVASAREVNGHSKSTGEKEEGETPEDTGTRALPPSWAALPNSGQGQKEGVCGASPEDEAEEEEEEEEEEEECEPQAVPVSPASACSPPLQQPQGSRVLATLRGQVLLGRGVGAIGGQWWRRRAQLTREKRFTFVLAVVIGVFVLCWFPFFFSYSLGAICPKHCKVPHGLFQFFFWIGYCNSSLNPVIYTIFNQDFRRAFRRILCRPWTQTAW
The assay can be described thus: Radioligand binding, adrenergic α2B (Protocol Group B). As to conditions: Protocol Group B; for inhibition at 0.01 µM / Percentage inhibition of ligand binding, Adrenergic α2B (10 nM): 10 nM compound; for inhibition at 0.01 µM: read-out: Percentage inhibition of ligand binding, Adrenergic α2B (10 nM); for inhibition at 0.03 µM: read-out: Percentage inhibition of ligand binding, Adrenergic α2B (30 nM); for inhibition at 0.1 µM: read-out: Percentage inhibition of ligand binding, Adrenergic α2B (0.1 μM); for Percentage inhibition of ligand binding, Adrenergic α2B (10 nM): 0.01 µM. The essentials: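 Compounds at various concentrations in 1% DMSO were tested on recombinant membranes in Tris-HCl pH 7.4 buffer containing MgCl2, CaCl2 and 0.2% BSA.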

Assay [2] concerns the target T2, Human adrenergic α2A receptor (Homo sapiens, UniProt P08913).
T2 sequence (P08913 1-465): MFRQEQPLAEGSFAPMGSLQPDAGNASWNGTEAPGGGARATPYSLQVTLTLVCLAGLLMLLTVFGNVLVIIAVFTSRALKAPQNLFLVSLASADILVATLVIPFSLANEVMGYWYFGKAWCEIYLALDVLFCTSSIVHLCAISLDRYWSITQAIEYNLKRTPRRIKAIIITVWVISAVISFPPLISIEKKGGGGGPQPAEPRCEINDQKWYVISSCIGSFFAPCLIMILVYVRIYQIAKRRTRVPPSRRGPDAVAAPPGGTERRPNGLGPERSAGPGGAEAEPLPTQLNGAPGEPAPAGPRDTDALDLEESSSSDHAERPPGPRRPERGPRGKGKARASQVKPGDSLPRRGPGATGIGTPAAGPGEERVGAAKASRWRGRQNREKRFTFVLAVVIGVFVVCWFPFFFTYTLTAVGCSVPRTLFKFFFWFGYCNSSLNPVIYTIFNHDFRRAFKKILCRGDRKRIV
The assay is described as follows: Radioligand binding, adrenergic α2A (Protocol Group B). Conditions: Protocol Group B; for inhibition at 0.1 µM / Percentage inhibition of ligand binding, Adrenergic α2A (0.1 μM): 0.1 μM compound; for inhibition at 0.1 µM: read-out: Percentage inhibition of ligand binding, Adrenergic α2A (0.1 μM); for inhibition at 0.3 µM / Percentage inhibition of ligand binding, Adrenergic α2A (0.3 μM): 0.3 μM compound; for inhibition at 0.3 µM: read-out: Percentage inhibition of ligand binding, Adrenergic α2A (0.3 μM). The essentials: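 Compounds (1% DMSO vehicle, various concentrations) competed against 2 nM [^3H]MK-912 on recombinant receptor membranes for 60 min at 25° C, Tris-HCl pH 7.4 buffer with Mg2+, Ca2+, BSA. Bound radioligand filtered and counted; 10 μM rauwolscine set nonspecific binding. Values: percent inhibition of specific binding or estimated Ki.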

In assay [3] the target is T3, Human adrenergic α1B receptor (Homo sapiens, UniProt P35368).
T3 sequence (P35368 1-520): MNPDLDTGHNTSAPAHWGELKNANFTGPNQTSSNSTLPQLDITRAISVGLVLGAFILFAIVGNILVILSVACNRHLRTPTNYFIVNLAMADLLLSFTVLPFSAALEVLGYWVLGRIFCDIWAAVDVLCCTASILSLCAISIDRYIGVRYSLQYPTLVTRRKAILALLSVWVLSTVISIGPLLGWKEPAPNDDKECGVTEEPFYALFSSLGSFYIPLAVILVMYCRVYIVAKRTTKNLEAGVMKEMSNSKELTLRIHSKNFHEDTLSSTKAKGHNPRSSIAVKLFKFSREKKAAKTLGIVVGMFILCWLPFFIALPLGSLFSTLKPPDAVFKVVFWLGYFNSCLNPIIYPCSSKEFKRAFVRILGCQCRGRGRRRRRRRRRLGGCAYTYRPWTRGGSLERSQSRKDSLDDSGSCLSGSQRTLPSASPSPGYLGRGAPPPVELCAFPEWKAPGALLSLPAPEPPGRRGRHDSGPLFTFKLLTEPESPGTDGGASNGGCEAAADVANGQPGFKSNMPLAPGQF
The assay can be described thus: Radioligand binding, adrenergic α1B (Protocol Group B). Conditions: Protocol Group B; for inhibition at 0.1 µM: 0.1 μM compound, read-out: Percentage inhibition of ligand binding, Adrenergic α1B (0.1 μM); for inhibition at 0.3 µM: read-out: Percentage inhibition of ligand binding, Adrenergic α1B (0.3 μM). In outline:
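Values are percent inhibition of specific [3H]prazosin (0.3 nM) binding or estimated Ki, from filtration counting. Human α1B recombinant membranes, Tris-HCl pH 7.4 buffer with MgCl2 and EDTA, 60 min at 25 °C, 1% DMSO vehicle; 10 μM prazosin defined nonspecific binding.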

Structures are written as SMILES.

One may read the inhibition as the relative decrease from the control value, in per cent. As for `OCc1ccc2c(c1)c1c(n2CC(O)c2ccncc2)CCN2CCCC12` (centres unmarked) [compound 29], the inhibition at 0.01 µM in assay [1] turned out to be 31%. The inhibition at 0.03 µM in assay [1] (30 nM compound) stood at 66%. Besides, the inhibition at 0.1 µM in assay [1] (0.1 μM compound) is 80%; in assay [2], 20%; in assay [3], 15%. The results for the inhibition at 0.3 µM in assay [2] and in assay [3] (0.3 μM compound) were 49% and 46%, respectively.
Take `Cc1ccc2c(c1)c1c(n2CC(O)c2cccnc2)C(F)(F)CN(C)C1` (centres unmarked) [compound 30, 2-(4,4-difluoro-2,8-dimethyl-3,4-dihydro-1H-pyrido[4,3-b]indol-5(2H)-yl)-1-(pyridin-3-yl)ethanol]: the inhibition at 0.01 µM in assay [1] is 13%. In addition, the inhibition at 0.03 µM in assay [1] (30 nM compound) was 8%. For the same compound, the inhibition at 0.1 µM in assay [1] (0.1 μM compound) was 12%; in assay [2] it was -18%; in assay [3], 0%. For the same compound, the values for the inhibition at 0.3 µM in assay [2] and in assay [3] (0.3 μM compound) were -5% and 17%, respectively.
In the case of `Cc1ccc2c(c1)c1c(n2CC(C)(O)c2cnc3ccccc3c2)CCN(C)C1` (centres unmarked) [compound 32], the “Percentage inhibition of ligand binding, Adrenergic α2B (10 nM)” value in assay [1] is 14%. For the same compound, the “Percentage inhibition of ligand binding, Adrenergic α2B (30 nM)” value in assay [1] (30 nM compound, 0.03 µM) was 34%. Moreover, the inhibition at 0.1 µM in assay [1] (0.1 μM compound) was 69%; in assay [3], -1%. In addition, the “Percentage inhibition of ligand binding, Adrenergic α2A (0.1 μM)” value in assay [2] is 5%. Moreover, in assay [2], the “Percentage inhibition of ligand binding, Adrenergic α2A (0.3 μM)” value amounted to 31%. The inhibition at 0.3 µM in assay [3] (0.3 μM compound) amounted to 18%.
Regarding `Cc1ccc2c(c1)c1c(n2CC(C)(O)c2ccc(C(=O)N(C)CC3CC3)nc2)CCN(C)C1` (centres unmarked) [compound 33, N-(cyclopropylmethyl)-5-(1-(2,8-dimethyl-3,4-dihydro-1H-pyrido[4,3-b]indol-5(2H)-yl)-2-hydroxypropan-2-yl)-N-methylpicolinamide], the inhibition at 0.01 µM in assay [1] stood at 6%. Further, the inhibition at 0.03 µM in assay [1] (30 nM compound) was found to be 8%. The inhibition at 0.1 µM in assay [1] (0.1 μM compound) is 38%; in assay [2], -10%; in assay [3], -12%. The inhibition at 0.3 µM was 4% in assay [2] and -1% in assay [3] (0.3 μM compound).
Turning to `Cc1ccc2c(c1)c1c(n2CC(C)(O)c2ccc(N(C)C)nc2)CCN(C)C1` (centres unmarked) [compound 39, 1-(2,8-dimethyl-3,4-dihydro-1H-pyrido[4,3-b]indol-5(2H)-yl)-2-(6-(dimethylamino)pyridin-3-yl)propan-2-ol], the “Percentage inhibition of ligand binding, Adrenergic α2B (10 nM)” value in assay [1] is recorded as 11%. Moreover, in assay [1] (30 nM compound), the inhibition at 0.03 µM is 35%. Also, the “Percentage inhibition of ligand binding, Adrenergic α2B (0.1 μM)” value in assay [1] (0.1 μM compound, 0.1 µM) worked out at 64%. In addition, in assay [2], the “Percentage inhibition of ligand binding, Adrenergic α2A (0.1 μM)” value was determined as 17% and the “Percentage inhibition of ligand binding, Adrenergic α2A (0.3 μM)” value came out at 19%. In addition, the inhibition at 0.1 µM in assay [3] was found to be 17%. In addition, the “Percentage inhibition of ligand binding, Adrenergic α1B (0.3 μM)” value in assay [3] (0.3 μM compound, 0.3 µM) was 34%.
`Cc1ccc2c(c1)c1c(n2CC(C)(O)c2cnccc2F)CCN(C)C1` (centres unmarked) [compound 40, 1-(2,8-dimethyl-3,4-dihydro-1H-pyrido[4,3-b]indol-5(2H)-yl)-2-(4-fluoropyridin-3-yl)propan-2-ol]: the inhibition at 0.01 µM in assay [1] is 19%. Further, the inhibition at 0.03 µM in assay [1] (30 nM compound) came out at 44%. Besides, the figures for the inhibition at 0.1 µM in assay [1] (0.1 μM compound), in assay [2] and in assay [3] were 74%, 5% and -6%, respectively. Besides, the inhibition at 0.3 µM stood at 19% in assay [2] and 3% in assay [3] (0.3 μM compound).
For `Cc1ccc2c(c1)c1c(n2CC(C)(O)c2ccc(N)nc2)CCN(C)C1` (centres unmarked) [compound 47, 2-(6-aminopyridin-3-yl)-1-(2,8-dimethyl-3,4-dihydro-1H-pyrido[4,3-b]indol-5(2H)-yl)propan-2-ol], in assay [1], the inhibition at 0.01 µM was 50%. For the same compound, the inhibition at 0.03 µM in assay [1] (30 nM compound) amounted to 65%. Besides, the inhibition at 0.1 µM turned out to be 83% in assay [1] (0.1 μM compound), 33% in assay [2] and 3% in assay [3]. In addition, the inhibition at 0.3 µM in assay [2] worked out at 50%; in assay [3] (0.3 μM compound) it was 32%.
With `Cc1ccc2c(c1)c1c(n2CC(OC(C)C)c2ccncc2)CCN(C)C1` (centres unmarked) [compound 49, 5-(2-isopropoxy-2-(pyridin-4-yl)ethyl)-2,8-dimethyl-2,3,4,5-tetrahydro-1H-pyrido[4,3-b]indole], the inhibition at 0.01 µM in assay [1] was 50%. Also, in assay [1] (30 nM compound), the inhibition at 0.03 µM was 74%. In addition, the inhibition at 0.1 µM in assay [1] (0.1 μM compound) came out at 91%; in assay [2], 28%; in assay [3], 9%. For the same compound, the inhibition at 0.3 µM in assay [2] was 53%; in assay [3] (0.3 μM compound), 40%.
As for `Cc1ccc2c(c1)c1c(n2CC(O)c2ccc(C(=O)N(C)C)nc2)CCN(C)C1` (centres unmarked) [compound 54, 5-(2-(2,8-dimethyl-3,4-dihydro-1H-pyrido[4,3-b]indol-5(2H)-yl)-1-hydroxyethyl)-N,N-dimethylpicolinamide], the inhibition at 0.01 µM in assay [1] stood at 15%. The inhibition at 0.03 µM in assay [1] (30 nM compound) was determined as 43%. In addition, the inhibition at 0.1 µM in assay [1] (0.1 μM compound) was 66%; in assay [2], -8%; in assay [3], -5%. The results for the inhibition at 0.3 µM in assay [2] and in assay [3] (0.3 μM compound) were -3% and 8%, respectively.
Consider `Cc1ccc2c(c1)c1c(n2CC(O)c2ccc(C(=O)NC3CC3)nc2)CCN(C)C1` (centres unmarked) [compound 55, N-cyclopropyl-5-(2-(2,8-dimethyl-3,4-dihydro-1H-pyrido[4,3-b]indol-5(2H)-yl)-1-hydroxyethyl)picolinamide], for which, in assay [1], the inhibition at 0.01 µM came out at 6%. Moreover, in assay [1] (30 nM compound), the inhibition at 0.03 µM turned out to be 24%. Besides, the results for the inhibition at 0.1 µM in assay [1] (0.1 μM compound), in assay [2] and in assay [3] were 50%, -4% and 19%, respectively. Further, the inhibition at 0.3 µM was found to be 3% in assay [2] and 44% in assay [3] (0.3 μM compound).
Take `Cc1ccc2c(c1)c1c(n2CC(C)(O)c2ccc(OCC3CC3)nc2)CCN(C)C1` (centres unmarked) [compound 56, 2-(6-(cyclopropylmethoxy)pyridin-3-yl)-1-(2,8-dimethyl-3,4-dihydro-1H-pyrido[4,3-b]indol-5(2H)-yl)propan-2-ol]: the inhibition at 0.01 µM in assay [1] was 17%. The inhibition at 0.03 µM in assay [1] (30 nM compound) came to 48%. In addition, the inhibition at 0.1 µM stood at 74% in assay [1] (0.1 μM compound), 1% in assay [2] and 12% in assay [3]. Besides, the inhibition at 0.3 µM was 9% in assay [2] and 38% in assay [3] (0.3 μM compound).
